What was measured:
Assay in all cases: relative viability (nuclei count vs DMSO), 5 days (fraction); higher = more cells survive
NCI-H2405 = system: NCI-H2405
Outline: (§1)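 Dosing by pin tool came one day after lung cancer cell lines were seeded in 1536-well plates, using either one drug or a fixed anchor-drug dose plus five library-drug doses (not always all listed) in √10 steps. After 5 days, nuclei were counted on 4× images. Relative viability is treated-well nuclei count divided by vehicle-well nuclei count, and values are medians of duplicate plates.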

NCI-H520 = system: NCI-H520
Outline: as §1

EPLC-272H = system: EPLC-272H
Outline: as §1

NCI-H1944 = system: NCI-H1944
Outline: as §1

NCI-H1793 = system: NCI-H1793
Outline: as §1

EMC-BAC-2 = system: EMC-BAC-2
Outline: as §1

NCI-H1355 = system: NCI-H1355
Outline: as §1

NCI-H1651 = system: NCI-H1651
Outline: as §1

NCI-H1563 = system: NCI-H1563
Outline: as §1

ChaGo-K-1 = system: ChaGo-K-1
Outline: as §1

NCI-H650 = system: NCI-H650
Outline: as §1

NCI-H322M = system: NCI-H322M
Outline: as §1

NCI-H1395 = system: NCI-H1395
Outline: as §1

NCI-H2085 = system: NCI-H2085
Outline: as §1

SK-MES-1 = system: SK-MES-1
Outline: as §1

NCI-H2087 = system: NCI-H2087
Outline: as §1

UMC-11 = system: UMC-11
Outline: as §1

HCC-827 = system: HCC-827
Outline: as §1

LCLC-103H = system: LCLC-103H
Outline: as §1

H3255 = system: H3255
Outline: as §1

NCI-H2023 = system: NCI-H2023
Outline: as §1

LCLC-97TM1 = system: LCLC-97TM1
Outline: as §1

HCC-44 = system: HCC-44
Outline: as §1

`C=C1C(=O)O[C@@H](CCCCCCCC)[C@@H]1C(=O)O` [C-75] + COc1cccc2cc(-c3nc([C@H]4CC[C@H](C(=O)O)CC4)n4ncnc(N)c34)[nH]c12 [OSI-027] (partner 0.5 µM) showed a relative viability (NCI-H2405; first compound 0.08 µM) of 0.7, a relative viability (NCI-H2405; first compound 0.253 µM) of 0.63 and a relative viability (NCI-H2405; first compound 0.8 µM) of 0.657. For the same compound, the relative viability (NCI-H2405; first compound 2.53 µM) was 0.519, the relative viability (NCI-H2405; first compound 8 µM) was 0.698 and the relative viability (NCI-H520; first compound 0.08 µM) was 0.237. For the same compound, the relative viability (NCI-H520; first compound 0.253 µM) was 0.338, the relative viability (NCI-H520; first compound 0.8 µM) was 0.242 and the relative viability (NCI-H520; first compound 2.53 µM) was 0.221. The relative viability (NCI-H520; first compound 8 µM) was 0.294, the relative viability (EPLC-272H; first compound 0.08 µM) was 0.271 and the relative viability (EPLC-272H; first compound 0.253 µM) was 0.302. The relative viability (EPLC-272H; first compound 0.8 µM) was 0.278, the relative viability (EPLC-272H; first compound 2.53 µM) was 0.227 and the relative viability (EPLC-272H; first compound 8 µM) was 0.235. The relative viability (NCI-H1944; first compound 0.08 µM) was 0.441, the relative viability (NCI-H1944; first compound 0.253 µM) was 0.426 and the relative viability (NCI-H1944; first compound 0.8 µM) was 0.392. For the same compound, the relative viability (NCI-H1944; first compound 8 µM) was 0.448, the relative viability (NCI-H1793; first compound 0.08 µM) was 0.337 and the relative viability (NCI-H1793; first compound 0.253 µM) was 0.284. For the same compound, the relative viability (NCI-H1793; first compound 0.8 µM) was 0.241, the relative viability (NCI-H1793; first compound 2.53 µM) was 0.224 and the relative viability (NCI-H1793; first compound 8 µM) was 0.342. For the same compound, the relative viability (EMC-BAC-2; first compound 0.08 µM) was 0.416, the relative viability (EMC-BAC-2; first compound 0.253 µM) was 0.385 and the relative viability (EMC-BAC-2; first compound 0.8 µM) was 0.384. It also gave a relative viability (EMC-BAC-2; first compound 2.53 µM) of 0.269, a relative viability (EMC-BAC-2; first compound 8 µM) of 0.341 and a relative viability (NCI-H1355; first compound 0.08 µM) of 0.49. For the same compound, the relative viability (NCI-H1355; first compound 0.253 µM) was 0.441, the relative viability (NCI-H1355; first compound 0.8 µM) was 0.391 and the relative viability (NCI-H1355; first compound 2.53 µM) was 0.348. The relative viability (NCI-H1355; first compound 8 µM) was 0.5, the relative viability (NCI-H1651; first compound 0.08 µM) was 0.712 and the relative viability (NCI-H1651; first compound 0.253 µM) was 0.838. The relative viability (NCI-H1651; first compound 0.8 µM) was 0.768, the relative viability (NCI-H1651; first compound 2.53 µM) was 0.635 and the relative viability (NCI-H1651; first compound 8 µM) was 0.815. It also gave a relative viability (NCI-H1563; first compound 0.08 µM) of 0.806, a relative viability (NCI-H1563; first compound 0.253 µM) of 0.856 and a relative viability (NCI-H1563; first compound 0.8 µM) of 0.791. The relative viability (NCI-H1563; first compound 2.53 µM) was 0.718, the relative viability (NCI-H1563; first compound 8 µM) was 0.79 and the relative viability (ChaGo-K-1; first compound 0.08 µM) was 0.605. For the same compound, the relative viability (ChaGo-K-1; first compound 0.253 µM) was 0.545, the relative viability (ChaGo-K-1; first compound 0.8 µM) was 0.532 and the relative viability (ChaGo-K-1; first compound 2.53 µM) was 0.422. It also gave a relative viability (ChaGo-K-1; first compound 8 µM) of 0.564, a relative viability (NCI-H650; first compound 0.08 µM) of 0.611 and a relative viability (NCI-H650; first compound 0.253 µM) of 0.401. For the same compound, the relative viability (NCI-H650; first compound 0.8 µM) was 0.494, the relative viability (NCI-H650; first compound 2.53 µM) was 0.448 and the relative viability (NCI-H650; first compound 8 µM) was 0.524. The relative viability (NCI-H322M; first compound 0.08 µM) was 0.543, the relative viability (NCI-H322M; first compound 0.253 µM) was 0.7 and the relative viability (NCI-H322M; first compound 0.8 µM) was 0.583. For the same compound, the relative viability (NCI-H322M; first compound 2.53 µM) was 0.478, the relative viability (NCI-H322M; first compound 8 µM) was 0.588 and the relative viability (NCI-H1395; first compound 0.08 µM) was 0.669. It also gave a relative viability (NCI-H1395; first compound 0.253 µM) of 0.624, a relative viability (NCI-H1395; first compound 0.8 µM) of 0.556 and a relative viability (NCI-H1395; first compound 2.53 µM) of 0.667. For the same compound, the relative viability (NCI-H1395; first compound 8 µM) was 0.649, the relative viability (NCI-H2085; first compound 0.08 µM) was 0.882 and the relative viability (NCI-H2085; first compound 0.253 µM) was 0.883. The relative viability (NCI-H2085; first compound 0.8 µM) was 0.689, the relative viability (NCI-H2085; first compound 2.53 µM) was 0.757 and the relative viability (NCI-H2085; first compound 8 µM) was 0.73. It also gave a relative viability (SK-MES-1; first compound 0.08 µM) of 0.738, a relative viability (SK-MES-1; first compound 0.253 µM) of 0.666 and a relative viability (SK-MES-1; first compound 0.8 µM) of 0.568. The relative viability (SK-MES-1; first compound 2.53 µM) was 0.469, the relative viability (SK-MES-1; first compound 8 µM) was 0.549 and the relative viability (NCI-H2087; first compound 0.08 µM) was 0.609. It also gave a relative viability (NCI-H2087; first compound 0.253 µM) of 0.807, a relative viability (NCI-H2087; first compound 0.8 µM) of 0.54 and a relative viability (NCI-H2087; first compound 2.53 µM) of 0.377. For the same compound, the relative viability (NCI-H2087; first compound 8 µM) was 0.528, the relative viability (UMC-11; first compound 0.08 µM) was 0.457 and the relative viability (UMC-11; first compound 0.253 µM) was 0.579. It also gave a relative viability (UMC-11; first compound 0.8 µM) of 0.477, a relative viability (UMC-11; first compound 2.53 µM) of 0.461 and a relative viability (UMC-11; first compound 8 µM) of 0.417. For the same compound, the relative viability (HCC-827; first compound 0.08 µM) was 0.757, the relative viability (HCC-827; first compound 0.253 µM) was 0.826 and the relative viability (HCC-827; first compound 0.8 µM) was 0.751. The relative viability (HCC-827; first compound 2.53 µM) was 0.597, the relative viability (HCC-827; first compound 8 µM) was 0.758 and the relative viability (LCLC-103H; first compound 0.08 µM) was 0.471. For the same compound, the relative viability (LCLC-103H; first compound 0.253 µM) was 0.495, the relative viability (LCLC-103H; first compound 0.8 µM) was 0.432 and the relative viability (LCLC-103H; first compound 2.53 µM) was 0.337. The relative viability (LCLC-103H; first compound 8 µM) was 0.472, the relative viability (H3255; first compound 0.08 µM) was 0.589 and the relative viability (H3255; first compound 0.253 µM) was 0.7. The relative viability (H3255; first compound 0.8 µM) was 0.481, the relative viability (H3255; first compound 2.53 µM) was 0.562 and the relative viability (H3255; first compound 8 µM) was 0.633. The relative viability (NCI-H2023; first compound 0.08 µM) was 0.455, the relative viability (NCI-H2023; first compound 0.253 µM) was 0.558 and the relative viability (NCI-H2023; first compound 0.8 µM) was 0.34. It also gave a relative viability (NCI-H2023; first compound 2.53 µM) of 0.415, a relative viability (NCI-H2023; first compound 8 µM) of 0.32 and a relative viability (LCLC-97TM1; first compound 0.08 µM) of 0.554. For the same compound, the relative viability (LCLC-97TM1; first compound 0.253 µM) was 0.636, the relative viability (LCLC-97TM1; first compound 0.8 µM) was 0.543 and the relative viability (LCLC-97TM1; first compound 2.53 µM) was 0.192. The relative viability (LCLC-97TM1; first compound 8 µM) was 0.479, the relative viability (HCC-44; first compound 0.08 µM) was 0.675 and the relative viability (HCC-44; first compound 0.253 µM) was 0.428. For the same compound, the relative viability (HCC-44; first compound 0.8 µM) was 0.463, the relative viability (HCC-44; first compound 2.53 µM) was 0.353 and the relative viability (HCC-44; first compound 8 µM) was 0.404.

Reference: the supplement of paper PMC10307832
